Results reported in PMC11589570, “Critical assessment of LC3/GABARAP ligands used for degrader development and ligandability of LC3/GABARAP binding pockets” (Nature Communications, 2024).
Values joined by “and” are separate entries in the source; they are usually repeats but may differ in a detail not shown here. Equal values may be shown once. “Also recorded” adds a separate entry of the source.

Experiments:
LC3A [1] = target: T1, LC3A (Homo sapiens, UniProt Q9H492); test: Spectral shift assay (Dianthus), cysteine-labelled protein; format: binding; details: Repeat 1 and Repeat 2, listed as 8F20 (3)
Method: Affinity determination using spectral shift mode on Dianthus: To determine dissociation constants, the Dianthus instrument (NanoTemper Technologies GmbH, Germany) was used to monitor molecular interactions. […] Protein was labelled with RED-maleimide 2nd Generation (cat# MO-L014; NanoTemper Technologies GmbH). Labeling was carried out following the manufacturer protocol, using a 3:1 ratio dye:protein. […] Protein was purified in 30 mM HEPES, 100 mM NaCl, 0.05% Tween, pH 7.5. […] Measurements were performed in spectral shift mode with an LED excitation power of 100%. Data were analyzed using the DI.Screening Analysis Software (v.2.0.4) (NanoTemper Technologies GmbH, Germany) and quality criteria values including Δ Ratio, Signal-to-Noise-Ratio, Fit Saturation and KD values were determined.

RPE1 cells = test: Cell growth assay (IncuCyte confluence over 72 h); format: cell-based; details: for RPE1 cell growth: listed as 8F20
Method in brief: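 Phase confluence (% area covered by cells) imaged every 2 h for 72 h after compound addition; cells in DMEM/10% FBS, seeded 24 h before treatment. Controls were 0.1% DMSO, 250 nM Torin1 and 200 ng/mL Bafilomycin (final). Each point averages three wells.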

[2] = Cell viability measurements; format: cell-based; parameters: Cell viability: scale not given here; details: two replicate columns; for Cell viability: listed as 8F20
Description: 1 Source data for Supplementary Fig. 8a-f are provided as a Source Data file.

LC3A [3] = target: T1, LC3A; test: FP assay with 10O5- and 8F20-based dye-linked tracers 16 and 17; details: LC3A; compound 3 for tracer 17, compound 4 for tracer 16
Description: (§1) The only experimental difference in our FP assay setup was the addition of 0.05% Tween-20, which is routinely used[27] to suppress unspecific binding of compounds to proteins.
(§2) Fluorescence polarization assay utilizing tracers 16 and 17 for interaction studies with LC3A
(§3) (upper panels) and LC3B (lower panels). The left panels depict protein titration measurements
(§4) detergent in the buffer to suppress unspecific binding. Middle panels depict displacement
Data were collected in technical
(§5) triplicates with error bars expressing the SD (n=3).

LC3B = LC3B (Homo sapiens, UniProt Q9GZQ8); test: as above; details: LC3B; compound 3 for tracer 17, compound 4 for tracer 16
Description: as §1, §2, §3, §4
Data were collected in technical
as §5

[4] = test system: LC3/GABARAPs (human Atg8 family); test: FP assay with Cy5-labelled p62 LIR tracer, statements on all LC3/GABARAPs; format: binding

Cc1ccc(C(=O)N(CCCN)[C@@H](c2nc3cc(Cl)ccc3c(=O)n2Cc2ccccc2)C(C)C)cc1 [compound 3, (R)-N-(3-aminopropyl)-N-(1-(3-benzyl-7-chloro-4-oxo-3,4-dihydroquinazolin-2-yl)−2-methylpropyl)−4-methylbenzamide]
Initial Fluorescence (LC3A [1]; compound 15.2588 nM titrated against LC3A): 10115.139 and 10590.376
Initial Fluorescence (LC3A [1]; compound 30.5176 nM titrated against LC3A): 10801.294 and 10751.715
Initial Fluorescence (LC3A [1]; compound 61.0352 nM titrated against LC3A): 10969.053 and 11514.474
Initial Fluorescence (LC3A [1]; compound 122.07 nM titrated against LC3A): 10805.714 and 11350.170
Initial Fluorescence (LC3A [1]; compound 244.141 nM titrated against LC3A): 12437.260 and 12829.142
Initial Fluorescence (LC3A [1]; compound 488.281 nM titrated against LC3A): 11460.432 and 11424.556
Initial Fluorescence (LC3A [1]; compound 976.562 nM titrated against LC3A): 11304.154 and 11789.590
Initial Fluorescence (LC3A [1]; compound 1953.12 nM titrated against LC3A): 11136.164 and 11540.347
Initial Fluorescence (LC3A [1]; compound 3906.25 nM titrated against LC3A): 11540.226 and 11678.705
Initial Fluorescence (LC3A [1]; compound 7812.5 nM titrated against LC3A): 12368.631 and 13118.831
Initial Fluorescence (LC3A [1]; compound 15625 nM titrated against LC3A): 13549.037 and 11303.453
Initial Fluorescence (LC3A [1]; compound 31250 nM titrated against LC3A): 12093.613 and 11816.274
Initial Fluorescence (LC3A [1]; compound 62500 nM titrated against LC3A): 12824.797 and 12883.571
Initial Fluorescence (LC3A [1]; compound 125000 nM titrated against LC3A): 12380.010 and 12980.949
Initial Fluorescence (LC3A [1]; compound 250000 nM titrated against LC3A): 12405.646 and 13536.280
RPE1 cell growth (RPE1 cells; 500 nM, 34 h): 24 and 12 and 17
RPE1 cell growth (RPE1 cells; 500 nM, 36 h): 23 and 14 and 18
RPE1 cell growth (RPE1 cells; 500 nM, 38 h): 23 and 14 and 19
RPE1 cell growth (RPE1 cells; 500 nM, 40 h): 11 and 16 and 21
RPE1 cell growth (RPE1 cells; 500 nM, 42 h): 27 and 16 and 23
RPE1 cell growth (RPE1 cells; 500 nM, 44 h): 29 and 17 and 23
RPE1 cell growth (RPE1 cells; 500 nM, 46 h): 31 and 17 and 24
RPE1 cell growth (RPE1 cells; 500 nM, 48 h): 32 and 17 and 25
RPE1 cell growth (RPE1 cells; 500 nM, 54 h): 33 and 17 and 28
RPE1 cell growth (RPE1 cells; 1 uM, 34 h): 15 and 25 and 13
RPE1 cell growth (RPE1 cells; 1 uM, 36 h): 17 and 25 and 14
RPE1 cell growth (RPE1 cells; 1 uM, 38 h): 17 and 24 and 15
RPE1 cell growth (RPE1 cells; 1 uM, 40 h): 18 and 20 and 17
RPE1 cell growth (RPE1 cells; 1 uM, 42 h): 22 and 27 and 16
RPE1 cell growth (RPE1 cells; 1 uM, 44 h): 22 and 28 and 18
RPE1 cell growth (RPE1 cells; 1 uM, 46 h): 22 and 28 and 17
RPE1 cell growth (RPE1 cells; 1 uM, 48 h): 25 and 32 and 18
RPE1 cell growth (RPE1 cells; 1 uM, 50 h): 24 and 32 and 20
RPE1 cell growth (RPE1 cells; 1 uM, 54 h): 29 and 33 and 21
RPE1 cell growth (RPE1 cells; 1 uM, 56 h): 28 and 34 and 21
RPE1 cell growth (RPE1 cells; 1 uM, 58 h): 30
RPE1 cell growth (RPE1 cells; 3 uM, 34 h): 25 and 15 and 17
RPE1 cell growth (RPE1 cells; 3 uM, 36 h): 25 and 16 and 18
RPE1 cell growth (RPE1 cells; 3 uM, 38 h): 26 and 17 and 18
RPE1 cell growth (RPE1 cells; 3 uM, 40 h): 23 and 18 and 19
RPE1 cell growth (RPE1 cells; 3 uM, 42 h): 29 and 18 and 23
RPE1 cell growth (RPE1 cells; 3 uM, 44 h): 28 and 20 and 21
RPE1 cell growth (RPE1 cells; 3 uM, 46 h): 31 and 19 and 22
RPE1 cell growth (RPE1 cells; 3 uM, 48 h): 31 and 19 and 23
RPE1 cell growth (RPE1 cells; 3 uM, 50 h): 31 and 20 and 23
RPE1 cell growth (RPE1 cells; 3 uM, 52 h): 25 and 22 and 24
RPE1 cell growth (RPE1 cells; 3 uM, 54 h): 31 and 21 and 25
RPE1 cell growth (RPE1 cells; 3 uM, 56 h): 34 and 19 and 25
RPE1 cell growth (RPE1 cells; 5 uM, 40 h): 27 and 15 and 24
effect on cell growth (confluence) (RPE1 cells; RPE1, 72 h): significant growth reduction; also recorded: strongly suppressed cellular growth
viability at 20 µM ([2]; log concentration [M] -4.69897): 0.689%
Cell viability ([2]; log concentration [M] -4.69897): 1.283
viability at 7.5 µM ([2]; log concentration [M] -5.12494): 91.3%
Cell viability ([2]; log concentration [M] -5.12494): 92.2351
viability at 2.5 µM ([2]; log concentration [M] -5.60206): 96.5%
Cell viability ([2]; log concentration [M] -5.60206): 100.107
viability at […] ([2]; log concentration [M] -6.00436): 93.4%
Cell viability ([2]; log concentration [M] -6.00436): 93.5465
viability at 0.3 µM ([2]; log concentration [M] -6.52288): 103%
Cell viability ([2]; log concentration [M] -6.52288): 93.076
viability at 0.125 µM ([2]; log concentration [M] -6.90309): 105%
Cell viability ([2]; log concentration [M] -6.90309): 93.9495
viability at 0.05 µM ([2]; log concentration [M] -7.30103): 102%
Cell viability ([2]; log concentration [M] -7.30103): 103.3
viability at 0.01625 µM ([2]; log concentration [M] -7.78915): 96.5%
Cell viability ([2]; log concentration [M] -7.78915): 90.0205
viability at […] ([2]; log concentration [M] -8.06399): 103%
Cell viability ([2]; log concentration [M] -8.06399): 92.6947
viability at 0.005 µM ([2]; log concentration [M] -8.30103): 99.5%
Cell viability ([2]; log concentration [M] -8.30103): 91.472
viability at 0.0021 µM ([2]; log concentration [M] -8.67778): 99.1%
Cell viability ([2]; log concentration [M] -8.67778): 90.5247
displacement of dye-linked tracer by parent compound (LC3A [3]): no displacement
displacement of dye-linked tracer by parent compound (LC3B): no displacement

CCCCCCC(Sc1nc(Cl)cc(Nc2nc(-c3ccc(C(=O)O)cc3)cs2)n1)C(=O)O (stereo not drawn) [compound 21]
interaction with LC3/GABARAP family members in FP displacement assay [4]: interacted with all LC3/GABARAPs
